This note sets out measurements from patent US20220249431A1, “ANTIMYCOTIC” (Karl-Franzens-Universität Graz, priority 2019, published 2022).

The test system of one test is C. albicans. Nature of the test: Checkerboard / combination assay, growth of planktonic cells (OD490). The test is classed as cell-based, Candida albicans. The procedure:
The minimal inhibitory concentration (MIC) was determined following the standard Clinical and Laboratory Standards Institute (CLSI) protocol M27 (Rex JH, and Clinical and Laboratory Standards Institute (2008). Reference method for broth dilution antifungal susceptibility testing of yeasts: approved standard, 3rd ed. National Committee for Clinical Laboratory Standards, Wayne, Pa.) for yeast strains or the standard CLSI protocol M38 (Clinical and Laboratory Standards Institute (2008). Reference method for broth dilution antifungal susceptibility testing of filamentous fungi. Clinical and Laboratory Standards Institute, Wayne, Pa.) for filamentous fungi.
For yeast strains media was inoculated with an overnight culture to an OD600 of 0.001 (1^04 cells/mL). Serial dilutions of substances were added and cells were incubated at 37° C. without shaking for 48±1 h.
MIC tests were performed in flat-bottom 96 well plates (Greiner Bio One, Austria) using 100 μL suspension per well sealed with gas-permeable foils. After incubation, OD490 values were measured using 96-well plate reader and growth capacity was analyzed by setting the corresponding control to 100%.
For synergy testing of different combinations, checkerboard assays were performed. Therefore, serial dilutions of two different compounds were combined for MIC, BIC or BEC testing as described above. Antifungal activity of substances alone or in combination was determined by setting the corresponding control to 100%.

The test system of another test is C. glabrata. Nature of the test: Minimal inhibitory concentration, planktonic cells (CLSI M27). The test is classed as cell-based, Candida glabrata. To be noted: Nakaseomyces glabratus, growth reduced to 50% of untreated control. The method, then: The minimal inhibitory concentration (MIC) was determined following the standard Clinical and Laboratory Standards Institute (CLSI) protocol M27 (Rex JH, and Clinical and Laboratory Standards Institute (2008). Reference method for broth dilution antifungal susceptibility testing of yeasts: approved standard, 3rd ed. National Committee for Clinical Laboratory Standards, Wayne, Pa.) for yeast strains or the standard CLSI protocol […] (Clinical and Laboratory Standards Institute (2008). Reference method for broth dilution antifungal susceptibility testing of filamentous fungi. Clinical and Laboratory Standards Institute, Wayne, Pa.) for filamentous fungi. For yeast strains media was inoculated with an overnight culture to an OD600 of 0.001 (1^04 cells/mL). Serial dilutions of substances were added and cells were incubated at 37° C. without shaking for 48±1 h. MIC tests were performed in flat-bottom 96 well plates (Greiner Bio One, Austria) using 100 μL suspension per well sealed with gas-permeable foils. After incubation, OD490 values were measured using 96-well plate reader and growth capacity was analyzed by setting the corresponding control to 100%. Different flavones were randomly chosen and tested for their effects on planktonic cells and biofilms of C. albicans and C. glabrata to determine corresponding IC50 values (the concentration that is required to reduce growth (minimal inhibitory concentration=MIC) or biofilm formation (biofilm inhibitory concentration=BIC) to 50% compared to the untreated control).

The next test deals with C. albicans biofilms. Nature of the test: Checkerboard assay, biofilm inhibition (CTB staining). The test is classed as cell-based, Candida albicans. The procedure: The biofilm inhibition concentration (BIC) was determined as described in Delattin N et al. (J Antimicrob Chemother 69(2014): 1035-1044). In short, RPMI medium was inoculated with an overnight culture to an OD (optical density) of 0.1, transferred to a U-bottom 96-well plate (MLS, Belgium) and treated with serial dilutions of substances. After the adherence phase (1 h, 37° C.), supernatant was removed, adherent cells were washed with PBS and fresh media (including substances) was added. Biofilms were then allowed to grow for 24 h at 37° C.
Formed biofilms were then analyzed for their metabolic activity. Therefore, C. albicans biofilm cells were treated with CTB (cell titer Blue®; Promega, Germany), diluted 1:100 in PBS. After incubation for 1 h at 37° C. in the dark fluorescence intensity was measured using a 96-well plate reader (Ex: 535, Em: 590, sens 65). For C. glabrata, XTT (2H-Tetrazolium, 2,3-bis(2-methoxy-4-nitro-5-sulfophenyl)-5-[(phenylamino)carbonyl]-hydroxide; Sigma, Germany or ABCR, Germany) was used instead. Thereby, biofilm cells were treated with an XTT solution (0.25 mg/mL XTT+0.1 μM menadione in PBS) at 37° C. in the dark and OD490 was measured.
For synergy testing of different combinations, checkerboard assays were performed. […] Antifungal activity of substances alone or in combination was determined by setting the corresponding control to 100%.

Values after ≈ are worked out from the molar mass of the structure shown.

As for `O=c1c(O)c(-c2ccccc2)oc2ccc(O)cc12` [3,6-dihydroxyflavone], the “effect on activity of caspofungin, growth of planktonic cells” value with C. albicans (4.9 nM Caspo, 5 μM 3,6-DHF, preliminary data) is given as “enhances the activity of Caspofungin”. In the test on C. albicans (3.1 μM 3,6-DHF with 0.4 μM miconazole or 0.5 μM fluconazole), the “effect on activity of azoles in vitro (growth inhibition)” value is “enhances the activity of azoles”. This compound also showed an MIC50 in the test with C. glabrata of 7.9 ± 1 µM (≈ 2.01 µg/mL). Besides, in the test with C. albicans biofilms (39 nM Caspo, 3.1 μM 3,6-DHF), the “effect on activity of caspofungin, biofilm formation” value is “enhances the activity of Caspofungin”. Further, in the test on C. albicans biofilms (0.16 μM AMB, 25 μM 3,6-DHF), the “combination with AMB on biofilms in vitro” value is “acts synergistically with AMB”.

The term MIC50 denotes an inhibitory concentration at the 50% level, which refers to growth in some studies and to a panel of isolates in others. Read a high MIC50 as weaker potency.
